Assays:
CYP2C9 = molecular target: T1, CYP2C9 (Homo sapiens, UniProt P11712); experiment: Cytochrome inhibition, fluorescent detection (7-MFC substrate); assay type: in vitro ADME; details: recombinant human CYP2C9
T1 construct: host or cells: insect cell microsomes
Description: (§1) To screen the inhibition potential of the compounds, recombinant human cytochrome P450 enzymes (CYP1A2, CYP2C9, CYP2C19, CYP2D6, and CYP3A4) and probe substrates were used with the fluorescent detection method. Incubations were conducted in 200-µL volume 96 well microtiter plates (COSTAR 3915). Addition of cofactor-buffer mixture (KH2PO4 buffer, 1.3 mM NADP+, 3.3 mM MgCl2, 3.3 mM Glucose-6-phosphate and 0.4 U/mL Glucose-6-phosphate Dehydrogenase), supersomes control, standard inhibitors (Furafyline, Tranylzypromine, Ketoconazole, Sulfaphenazole, and Quinidine; from Sigma Aldrich), and test compounds to plates were carried out using a a liquid handling station (Zephyr Caliper). The plate was then pre-incubated at 37 °C for 5 min, and the reaction initiated by the addition of pre-warmed enzyme/substrate (E/S) mix. […] Fluorescence per well was measured using a fluorescence plate reader (Tecan M1000 pro), and the percentage of inhibition was calculated.

NMDAR = system: NMDAR; set-up: method as in PMID 29767953; details: early preclinical in vitro experiments; cited from earlier work
CYP2D6 = molecular target: T2, CYP2D6 (Homo sapiens, UniProt P10635); experiment: Cytochrome inhibition, fluorescent detection (AMMC substrate); assay type: in vitro ADME; details: recombinant human CYP2D6
T2 construct: host or cells: insect cell microsomes
T2 sequence (P10635 whole entry): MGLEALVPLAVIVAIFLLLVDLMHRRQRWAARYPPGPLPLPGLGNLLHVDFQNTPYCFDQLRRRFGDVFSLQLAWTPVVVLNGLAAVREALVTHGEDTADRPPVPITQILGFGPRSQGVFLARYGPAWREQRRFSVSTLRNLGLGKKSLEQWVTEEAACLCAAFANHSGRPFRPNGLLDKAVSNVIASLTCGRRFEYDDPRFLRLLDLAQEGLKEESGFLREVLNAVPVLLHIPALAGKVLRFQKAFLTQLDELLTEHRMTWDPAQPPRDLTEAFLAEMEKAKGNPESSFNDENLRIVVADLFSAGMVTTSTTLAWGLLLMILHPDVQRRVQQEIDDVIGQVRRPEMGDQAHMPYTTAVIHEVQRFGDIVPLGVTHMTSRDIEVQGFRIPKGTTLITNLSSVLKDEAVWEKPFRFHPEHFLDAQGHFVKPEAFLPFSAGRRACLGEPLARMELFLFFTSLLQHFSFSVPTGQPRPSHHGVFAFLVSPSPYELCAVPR
Description: as §1

SAMR1 and SAMP8 mice [1] = experiment: Novel object recognition test (NORT); assay type: in vivo, mouse; details: 5 mg/kg/day
Description: Male SAMR1 and SAMP8 mice (n = 41) with 20-weeks-old were used to carry out cognitive and molecular analysis. The animals were randomly divided into four groups: SAMR1 control (SR1 Ct) group (n = 11), SAMP8 control (SP8 Ct) group (n = 8), SAMR1 treated with RL-208 (SR1 RL-208 (5 mg/Kg)) group (n = 10) and SAMP8 treated with RL-208 (SP8 RL-208 (5 mg/Kg)) group (n = 12). Animals had free access to food and water, under standard temperature conditions (22±2 °C) and 12h:12h light-dark cycles (300 lux/0 lux). RL-208, (3,4,8,9-tetramethyltetracyclo[4.4.0.0^3,9.0^4,8]dec-1-yl)-methylamine hydrochloride, (5 mg/kg/day) was administered through drinking water for four weeks before starting the cognitive test. RL-208 was administered up to euthanasia (Figure 1A). Water consumption was controlled each week for each cage and strain. Afterwards, RL-208 concentration was adjusted accordingly to reach the optimal dose for each cage. The novel object recognition test (NORT) allows evaluating short- and long-term recognition memory involving cortical areas and the hippocampus. The experimental apparatus used for this test was a 90º, two-arm, 25-cm-long, 20-cm-high, and a 5-cm-wide black maze of black polyvinyl chloride (Figure 1D). The walls could be removed for easy cleaning with 70% ethanol to eliminate olfactory cues, and light intensity in mid-field was 30 lux. The objects to be discriminated were made of plastic and chosen not to frighten mice and without any part likely to be bitten. Before performing the test, the mice were individually habituated to the apparatus for 10 min during 3 consecutive days. On day four the next day, the animals were allowed to explore freely a 10 min acquisition trial (First trial), during which they were placed in the maze in the presence of two identical novel objects (A+A’ or B+B’) at the end of each arm. The mouse was then removed from the apparatus and returned to its home cage. A 10 min retention trial (Second trial) was carried out two hours later. […] The time that mice explored the novel object (TN) and time that mice explored the old object (TO) were measured from the video recordings from each trial session Exploration of an object was defined as pointing the nose towards the object at a distance ≤2 cms and/or touching it with the nose. […] To avoid object preference biases objects A and B were counterbalanced so that one-half of the animals in each experimental group were first exposed to object A and then to object B, whereas the other half first saw object B and then object A. To evaluate the cognitive performance, the discrimination index (DI) was calculated, which is defined as (TN-TO)/(TN+TO).

SAMR1 and SAMP8 mice [2] = experiment: proBDNF and mBDNF protein levels in the hippocampus (ELISA); assay type: in vivo, mouse
Description: Male SAMR1 and SAMP8 mice (n = 41) with 20-weeks-old were used to carry out cognitive and molecular analysis. The animals were randomly divided into four groups: SAMR1 control (SR1 Ct) group (n = 11), SAMP8 control (SP8 Ct) group (n = 8), SAMR1 treated with RL-208 (SR1 RL-208 (5 mg/Kg)) group (n = 10) and SAMP8 treated with RL-208 (SP8 RL-208 (5 mg/Kg)) group (n = 12). Animals had free access to food and water, under standard temperature conditions (22±2 °C) and 12h:12h light-dark cycles (300 lux/0 lux). RL-208, (3,4,8,9-tetramethyltetracyclo[4.4.0.0^3,9.0^4,8]dec-1-yl)-methylamine hydrochloride, (5 mg/kg/day) was administered through drinking water for four weeks before starting the cognitive test. RL-208 was administered up to euthanasia (Figure 1A). Water consumption was controlled each week for each cage and strain. Afterwards, RL-208 concentration was adjusted accordingly to reach the optimal dose for each cage. Three days after the behavioural and cognitive tests, mice were euthanized by cervical dislocation. Brains were immediately removed from the skull. The hippocampus and cortex were then isolated and frozen in powdered dry ice. They were maintained at −80 °C for further use. Tissue samples were homogenized in lysis buffer containing phosphatase and protease inhibitors (Cocktail II, Sigma). Total protein levels were obtained, and protein concentration was determined by the method of Bradford. The hippocampal determination of pro-Brain-derived neurotrophic factor (proBDNF) and mature brain-derived neurotrophic factor (mBDNF) protein levels was performed using the enzyme-linked immunosorbent assay (ELISA) kit (Biosensis) according to the manufacturer’s instructions.

T1 sequence (P11712 whole entry): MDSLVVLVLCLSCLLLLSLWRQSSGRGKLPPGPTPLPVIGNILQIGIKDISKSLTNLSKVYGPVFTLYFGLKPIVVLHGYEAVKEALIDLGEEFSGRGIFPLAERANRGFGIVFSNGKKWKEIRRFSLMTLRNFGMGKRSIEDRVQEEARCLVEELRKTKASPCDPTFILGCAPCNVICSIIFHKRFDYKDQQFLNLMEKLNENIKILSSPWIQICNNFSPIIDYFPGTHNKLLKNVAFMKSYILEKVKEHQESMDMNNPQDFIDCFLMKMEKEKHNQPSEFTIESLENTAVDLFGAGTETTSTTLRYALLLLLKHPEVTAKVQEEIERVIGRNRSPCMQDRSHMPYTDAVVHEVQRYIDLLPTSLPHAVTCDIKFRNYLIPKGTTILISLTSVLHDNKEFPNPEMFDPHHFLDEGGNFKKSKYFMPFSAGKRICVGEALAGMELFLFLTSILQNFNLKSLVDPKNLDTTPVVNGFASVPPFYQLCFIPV

CYP2C9 inhibition (CYP2C9): 12 ± 2%
CYP2D6 inhibition (CYP2D6): 10 ± 3%
SMILES: CC12CC3CC1(C)C1(C)CC3(CN)CC21C.Cl [RL-208, (3,4,8,9-tetramethyltetracyclo [4.4.0.0^3,9.0^4,8]dec-1-yl)methylamine hydrochloride]
IC50 (NMDAR): ~1000 nM
NORT short-term recognition memory (DI) (SAMR1 and SAMP8 mice [1]; SP8 RL-208 vs SP8 Ct, 2 h retention): significant gain
NORT long-term recognition memory (DI) (SAMR1 and SAMP8 mice [1]; SP8 RL-208 vs SP8 Ct, 24 h retention): significant gain
NORT long-term DI (SAMR1 and SAMP8 mice [1]; between SR1 groups): no significant changes
NORT short-term DI (SAMR1 and SAMP8 mice [1]; between SR1 groups): no significant changes
mature BDNF protein levels (SAMR1 and SAMP8 mice [2]; RL-208 treated mice vs control groups): significant augment
proBDNF protein levels (SAMR1 and SAMP8 mice [2]; SP8 treated vs control): significant reduction
proBDNF protein levels (differences) (SAMR1 and SAMP8 mice [2]; SR1 strain): not significant

From publication PMC7151078, “A Novel NMDA Receptor Antagonist Protects against Cognitive Decline Presented by Senescent Mice” (Pharmaceutics, 2020)
